{"source": "patent US10369145B2", "about": "“Coumarin derivatives and methods of use in treating hyperproliferative diseases” (DISCOVERYBIOMED, INC., priority 2013, dated 2019)", "key": {"SF-268": {"system": "SF-268", "assay": "NCI 60 panel: SF-268 (CNS Cancer)", "format": "cell-based", "description": "(§5) TGI means the drug concentration resulting in total growth inhibition or “cytostasis.” LC50 is the concentration of drug resulting in a 50% reduction in the measured cytosolic ATP at the end of the drug treatment as compared to that at the beginning, indicating a net loss of cells following treatment (cytotoxicity)."}, "OVCAR-5": {"system": "OVCAR-5", "assay": "NCI 60 panel: OVCAR-5 (Ovarian Cancer)", "format": "cell-based", "description": "as §5"}, "DU-145": {"system": "DU-145", "assay": "NCI 60 panel: DU-145 (Prostate Cancer)", "format": "cell-based", "description": "as §5"}, "U251": {"system": "U251", "assay": "NCI 60 panel: U251 (CNS Cancer)", "format": "cell-based", "description": "as §5"}, "NCI-H522": {"system": "NCI-H522", "assay": "NCI 60 panel: NCI-H522 (Non-Small Cell Lung Cancer)", "format": "cell-based", "description": "as §5"}, "c-Jun phosphorylation": {"system": "c-Jun phosphorylation", "assay": "Intracellular signaling molecule phospho-array", "format": "cell-based", "details": "human hyperproliferative GBM cancer cells; effect requiring 24 hours", "experimental": "An intracellular signaling molecule phospho-array was performed in compound-treated human hyperproliferative GBM cancer cells and in vehicle-treated human hyperproliferative GBM cancer cells. The tested compounds included Compound DBM 228 (002-N8-28), Compound DBM 328 (003-8COOH), and Compound DBM 308 (003-8Cl). DMSO served as the vehicle control. The numbers reflect pairs of spots in the typical dot blots that correspond to major kinases and other signaling proteins. Compound DBM 328 (003-8COOH) is a negative control for this array experiment to complement the DMSO vehicle control."}, "T-47D": {"system": "T-47D", "assay": "NCI 60 panel: T-47D (Breast Cancer)", "format": "cell-based", "description": "as §5"}, "NCI-H460": {"system": "NCI-H460", "assay": "NCI 60 panel: NCI-H460 (Non-Small Cell Lung Cancer)", "format": "cell-based", "description": "as §5"}, "UACC-62": {"system": "UACC-62", "assay": "NCI 60 panel: UACC-62 (Melanoma)", "format": "cell-based", "description": "as §5"}, "SW-620": {"system": "SW-620", "assay": "NCI 60 panel: SW-620 (Colon Cancer)", "format": "cell-based", "description": "as §5"}, "RPMI-8826": {"system": "RPMI-8826", "assay": "Complementary DBM in vitro profiling: RPMI-8826 (Hematologic Cancer)", "format": "cell-based", "experimental": "(§1) The compounds described herein are effective for inhibiting cellular proliferation in hyperproliferative cell types. To study the effects of these compounds, an assay was developed to differentiate the effects of the compounds on proliferating versus confluent cells. The assay design generates a proliferating density 24 hours after seeding and provides a 3-day active cell growth/doubling window in which to gauge the anti-proliferative effect of the compounds described herein. […] In this 3-day growth window, cell number increases with daily doublings across the 72-hour period (see FIG. 1).\n(§2) In each assay design, compounds were added at the 24-hour timepoint after cell seeding. The effect of the compounds, relative to vehicle control and to VelCade (a proteasome inhibitor approved in the U.S. for treating relapsed multiple myeloma and mantle cell lymphoma) as a positive control, was assessed across the 3-day growth window for proliferating cells and on an already near confluent culture of cells for the same time period. Normal cells were handled in the same manner, with some adjustment of seeding density needed in select cases. […]\n(§3) Cell number at the end of the assay was determined using the CELLTITER-GLO Luminescent Cell Viability Assay (Promega; Madison, Wis.). The CELLTITER-GLO Luminescent Cell Viability Assay is a homogeneous method of determining the number of viable cells in culture based on quantitation of the ATP present, an indicator of metabolically active cells. IC50 values were calculated. […]\n(§4) For a typical screening experiment to identify the compounds, cells were seeded into 96- or 384-well microtiter plates at plating densities pre-determined for each cell line to ensure drug exposure occurs during the proliferative phase well before confluency is reached. […] Values were calculated for each of these three parameters if the level of activity was reached; however, if the effect was not reached or was exceeded, the value for that parameter was expressed as greater or less than the maximum or minimum concentration tested."}, "[1]": {"system": "U251MG glioblastoma cells", "assay": "Propidium iodide-based cell cycle analysis", "details": "24 h", "experimental": "Cell cycle analysis was performed on U251-MG cells to determine at what point in the cell cycle the compounds described herein were acting. U251MG glioblastoma cells were treated for 24 h with increasing concentrations of Compound DBM 228.\nHowever, at higher nM doses, the cells appear to progress toward apoptosis and programmed cell death, given the higher % of cells in pre-G0/G1."}, "U266": {"system": "U266", "assay": "Complementary DBM in vitro profiling: U266 (Hematologic Cancer)", "format": "cell-based", "experimental": "as §1, §2, §3, §4"}, "tubulin": {"system": "tubulin", "assay": "Biochemical tubulin polymerization", "details": "FIG. 11C", "experimental": "Following 24 hours of treatment with Compound DBM 228, Compound DBM 318, and Compound DBM 328, caspase 3/7 activation in U251MG cells was determined. The detection of caspase 3/7 activation in U251MG cells indicates activation of apoptosis. Tubulin polymerization was determined for Compounds DBM 227, DBM 228, DBM 308, DBM 318, DBM 701, DBM 707, DBM 715, paclitaxel, vincristine, and negative control Compound DBM 328. […] Paclitaxel served as polymerization enhancer control and vincristine served as polymerization inhibitor control."}, "PC-3": {"system": "PC-3", "assay": "NCI 60 panel: PC-3 (Prostate Cancer)", "format": "cell-based", "description": "as §5"}, "ACHN": {"system": "ACHN", "assay": "NCI 60 panel: ACHN (Renal Cancer)", "format": "cell-based", "description": "as §5"}, "T98G": {"system": "T98G", "assay": "Complementary DBM in vitro profiling: T98G (CNS Cancer)", "format": "cell-based", "experimental": "as §1, §2, §3, §4"}, "[2]": {"details": "read-out: LC50 (the source's name)"}}, "data": [{"compound": "COc1ccccc1Nc1nc(-c2cc3cccc(N)c3oc2=O)cs1", "note": "[Compound DBM 228]", "values": [{"measurement": "GI50", "setting": "SF-268", "value": 0.77, "unit": "µM"}, {"measurement": "TGI", "setting": "SF-268", "value": 55.3, "unit": "µM"}, {"measurement": "CC50", "setting": "SF-268; [2]", "value": "> 100", "unit": "µM"}, {"measurement": "GI50", "setting": "OVCAR-5", "value": 0.592, "unit": "µM"}, {"measurement": "TGI", "setting": "OVCAR-5", "value": 15.7, "unit": "µM"}, {"measurement": "CC50", "setting": "OVCAR-5; [2]", "value": 51.9, "unit": "µM"}, {"measurement": "GI50", "setting": "DU-145", "value": 0.356, "unit": "µM"}, {"measurement": "TGI", "setting": "DU-145", "value": 5.31, "unit": "µM"}, {"measurement": "CC50", "setting": "DU-145; [2]", "value": 41, "unit": "µM"}, {"measurement": "GI50", "setting": "U251", "value": 0.0468, "unit": "µM"}, {"measurement": "TGI", "setting": "U251", "value": 10.6, "unit": "µM"}, {"measurement": "CC50", "setting": "U251; [2]", "value": 35.7, "unit": "µM"}, {"measurement": "GI50", "setting": "NCI-H522", "value": 0.0247, "unit": "µM"}, {"measurement": "TGI", "setting": "NCI-H522", "value": 0.094, "unit": "µM"}, {"measurement": "CC50", "setting": "NCI-H522; [2]", "value": "> 100", "unit": "µM"}, {"measurement": "effect on c-Jun phosphorylation, in words", "setting": "c-Jun phosphorylation", "value": "potentiation of c-Jun phosphorylation"}, {"measurement": "TGI", "setting": "T-47D", "value": 55.9, "unit": "µM"}, {"measurement": "CC50", "setting": "T-47D; [2]", "value": "> 100", "unit": "µM"}, {"measurement": "GI50", "setting": "NCI-H460", "value": 0.0912, "unit": "µM"}, {"measurement": "TGI", "setting": "NCI-H460", "value": 14.2, "unit": "µM"}, {"measurement": "CC50", "setting": "NCI-H460; [2]", "value": "> 100", "unit": "µM"}, {"measurement": "GI50", "setting": "UACC-62", "value": 0.0511, "unit": "µM"}, {"measurement": "LC50 (lethal concentration, 50% net cell kill)", "setting": "UACC-62", "value": "> 100", "unit": "µM"}, {"measurement": "TGI", "setting": "UACC-62", "value": 28.2, "unit": "µM"}, {"measurement": "GI50", "setting": "SW-620", "value": 0.064, "unit": "µM"}, {"measurement": "TGI", "setting": "SW-620", "value": ">100", "unit": "µM"}, {"measurement": "CC50", "setting": "SW-620; [2]", "value": "> 100", "unit": "µM"}, {"measurement": "GI50", "setting": "RPMI-8826", "value": 0.271, "unit": "µM"}, {"measurement": "TGI", "setting": "RPMI-8826", "value": 0.312, "unit": "µM"}, {"measurement": "CC50", "setting": "RPMI-8826; [2]", "value": "> 30", "unit": "µM"}, {"measurement": "percentage of cells in G0/G1", "setting": "[1]; 40 nM", "value": 52.2, "unit": "%"}, {"measurement": "percentage of cells in G2/M", "setting": "[1]; 40 nM", "value": 30.2, "unit": "%"}, {"measurement": "percentage of cells in Pre-G0/G1", "setting": "[1]; 40 nM", "value": 3.2, "unit": "%"}, {"measurement": "percentage of cells in S", "setting": "[1]; 40 nM", "value": 14.4, "unit": "%"}, {"measurement": "percentage of cells in G0/G1", "setting": "[1]; 100 nM", "value": 19.7, "unit": "%"}, {"measurement": "percentage of cells in G2/M", "setting": "[1]; 100 nM", "value": 41.1, "unit": "%"}, {"measurement": "percentage of cells in Pre-G0/G1", "setting": "[1]; 100 nM", "value": 13.6, "unit": "%"}, {"measurement": "percentage of cells in S", "setting": "[1]; 100 nM", "value": 25.6, "unit": "%"}, {"measurement": "percentage of cells in G0/G1", "setting": "[1]; 400 nM", "value": 1.8, "unit": "%"}, {"measurement": "percentage of cells in G2/M", "setting": "[1]; 400 nM", "value": 49.3, "unit": "%"}, {"measurement": "percentage of cells in Pre-G0/G1", "setting": "[1]; 400 nM", "value": 43.1, "unit": "%"}, {"measurement": "percentage of cells in S", "setting": "[1]; 400 nM", "value": 5.8, "unit": "%"}, {"measurement": "cell cycle effect, in words", "setting": "[1]; increasing concentrations", "value": "G2/M arrest"}, {"measurement": "GI50", "setting": "U266", "value": 0.0796, "unit": "µM"}, {"measurement": "TGI", "setting": "U266", "value": 0.116, "unit": "µM"}, {"measurement": "CC50", "setting": "U266; [2]", "value": 0.161, "unit": "µM"}, {"measurement": "effect on biochemical tubulin polymerization, in words", "setting": "tubulin", "value": "modestly inhibited"}, {"measurement": "GI50", "setting": "PC-3", "value": 0.27, "unit": "µM"}, {"measurement": "TGI", "setting": "PC-3", "value": 36, "unit": "µM"}, {"measurement": "CC50", "setting": "PC-3; [2]", "value": "> 100", "unit": "µM"}, {"measurement": "GI50", "setting": "ACHN", "value": 1.49, "unit": "µM"}, {"measurement": "TGI", "setting": "ACHN", "value": 15.9, "unit": "µM"}, {"measurement": "CC50", "setting": "ACHN; [2]", "value": 42.7, "unit": "µM"}, {"measurement": "GI50", "setting": "T98G", "value": 0.467, "unit": "µM"}, {"measurement": "TGI", "setting": "T98G", "value": 3.97, "unit": "µM"}, {"measurement": "CC50", "setting": "T98G; [2]", "value": 17.6, "unit": "µM"}]}]}
